Measurements as given in patent US20090035306A1 (KALYPSYS, INC., priority 2006, published 2009).

Legend:
[1] = target: T1, human TGR5 (Homo sapiens, UniProt Q8TDU6); experiment: cAMP production assay in HEK293 cells stably expressing TGR5 (LANCE TR-FRET); format: cell-based; settings: 30 minutes stimulation, read-out: cAMP Production in 293-TGR5 Cells EC50
T1 construct: expressed in transfected cells
T1 sequence (Q8TDU6 1-330): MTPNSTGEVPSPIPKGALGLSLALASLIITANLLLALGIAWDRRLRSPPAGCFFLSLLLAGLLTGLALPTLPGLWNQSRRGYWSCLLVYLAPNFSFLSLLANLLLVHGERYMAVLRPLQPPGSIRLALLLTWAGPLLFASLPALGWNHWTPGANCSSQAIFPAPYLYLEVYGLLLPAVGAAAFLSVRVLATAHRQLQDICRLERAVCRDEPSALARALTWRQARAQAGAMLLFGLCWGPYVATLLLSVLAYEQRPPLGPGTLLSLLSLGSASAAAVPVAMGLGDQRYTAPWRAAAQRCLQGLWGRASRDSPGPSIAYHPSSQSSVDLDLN
Outline: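 HEK293 cells stably transfected with human TGR5, incubated overnight in DMEM with 0.1% FBS, then given IBMX (1 mM final) and stimulated with compounds for 30 minutes. cAMP measured by LANCE TR-FRET after 1-7 h detection at room temperature. EC50 values reported as ≦10 μM (+) or >10 μM (−).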

[2] = test system: Mice; experiment: Glucose tolerance test (GTT), glucose disposal; format: in vivo, mouse; settings: 30 mg/kg, 2 g/kg dextrose orally at time 0, time 60 min
[3] = test system: Mice; experiment: In vivo GLP-1 secretion (GLP-1 protocol and GLP-1 assay); parameters: species or system mouse; settings: 30 mg/kg, portal vein blood
Description: Vehicle is CMC-Tween: 0.5% CMC+0.25% Tween 20 at an appropriate ml/kg. Dextrose dose per mouse=2 g dextrose/kg made from 0.5 g/ml stock dextrose solution. Compound 1 dose per mouse=30 mg/kg in CMC/Tween vehicle made from 4 mg/mL stock solution by adding 50 μL DMSO to 20 mg Compound 1, stirring to make a paste, adding 1 ml CMC/Tween with stirring, sonicating for 8 minutes on energy 05, and adjusting to 5 ml with CMC/Tween.
Mice (3 per group) were fasted at 6 am for an experiment at noon. Blood glucose was measured from tail nick blood using an Accucheck—Compact Monitoring Kit (Roche Diagnostics, Indianapolis Ind.). Baseline (time=−15 min) blood glucose concentration was determined for all mice. 2 g/kg dextrose (Hospira, Lake Forest, Ill.) was administered orally at time 0. Terminal blood samples were collected from the mice via portal vein draw (˜500 μL) into EDTA microtainer tubes at the following time points: −15, 0, 3, 6, 9, 12, 15, 20, 30 and 120 min. […] Plasma was stored in −80 C freezer to be analyzed for other chemistry measurements.
A GLP-1(Human, Mouse, Rat) ELA kit was used (ALPCO Diagnostics, Salem, N.H., Cat # 48-GLP-1-160) was used in a 96-well plate. […] 100 μl/well stop solution was added to each well to stop reaction, optical absorbance of wells read at 490 nm, and results calculated.

EC50 [1]: ≤ 10 µM
SMILES: O=c1c2ccccc2nc(-c2ccc(F)cc2)n1NCc1ccc(Br)cc1 [Example 1]
Plasma Glucose, Mean [2]: 294.2 mg/dL
Plasma GLP-1, Mean ([3]; 2 g/kg dextrose orally at time 0, time 20 min): 9.61 ng/mL
Plasma GLP-1, Mean ([3]; 2 g/kg dextrose orally at time 0, time −15 min (baseline)): 6.30 ng/mL
